This is an account of results in ChEMBL document CHEMBL4184129, “Inhibitors of nuclease and redox activity of apurinic/apyrimidinic endonuclease 1/redox effector factor 1 (APE1/Ref-1)” (Bioorg Med Chem, 2017).

The target in experiment [1] is T1, DNA repair nuclease/redox regulator APEX1 (Homo sapiens, UniProt P27695). As to the kind of experiment: Inhibition of nuclease activity of APE1 in human glioblastoma cells assessed as reduction in AP site DNA cleavage. The format is cell-based.
The target in experiment [2] is T1, DNA repair nuclease/redox regulator APEX1. As to the kind of experiment: Inhibition of human APE1 using a 5'-TAMRA labelled THF abasic site double-stranded oligodeoxynucleotide as substrate in presence of Mg2+ by fluorescence polarization displacement assay.
Experiment [3] has the same target. As to the kind of experiment: Inhibition of human APE1 measured every 5 mins for 60 mins by FAM fluorophore based fluorescence assay.
For experiment [4] the target is unchanged. As to the kind of experiment: Inhibition of N-terminal hexa-His tagged human APE1 expressed in Escherichia coli BL21 (Rosetta) using fluorescein-dabcyl-containing oligonucleotide as substrate measured over 5 mins by high-throughput fluorescence assay.
The target is the same in experiment [5]. Description: Inhibition of APE1 in human HeLa cells assessed as reduction in AP site cleavage 5'-[gamma-32P]CTCGCAAGUGGGTACCGA-3' as substrate after 1 hr. The format is cell-based.
Experiment [6] shares this target. As to the kind of experiment: Inhibition of His-tagged human APE1 expressed in Escherichia coli M15 assessed as reduction in cleavage of 26 mer substrate to 13 mer products pre-incubated for 30 mins before substrate addition for 15 mins using 5' end [32P] AP site containing 26 mer oligonucleotide by polyacrylamide gel electrophoresis.
The target is the same in experiment [7]. Description: Inhibition of human APE1 assessed as reduction in abasic sites DNA cleavage using 6-FAM/TAMRA labelled 17-Tphi as substrate by fluorescence-based assay.
The target is the same in experiment [8]. Description: Inhibition of […] activity of full length N-terminal hexa-His SUMO-fused human APE1 using HEX-labeled THF oligonucleotide as substrate preincubated for 30 to 120 mins followed by substrate addition measured after 15 mins by fluorescence assay.
Experiment [9] has the same target. As to the kind of experiment: Inhibition of recombinant human APE1 using 5'-F-GCCCCCXGGGGACGTACGATATCCCGCTCC-3' as substrate preincubated for 10 mins followed by substrate addition measured at 5 mins intervals for 30 mins by fluorescence-based assay.
For experiment [10] the target is unchanged. Description: Inhibition of recombinant human APE1 using a 5'-FAM/3'-Dabsyl labelled double-stranded DNA as substrate after 30 mins by fluorescence-based assay.
For experiment [11], the system named is Panel NCI-60 (60 carcinoma cell lines). As to the kind of experiment: Growth inhibition in human NCI60 cells after 72 hrs by CellTiterGlo assay. The experiment is classed as functional.
Experiment [12] concerns the target T1, DNA repair nuclease/redox regulator APEX1. Description: Inhibition of APE1 in human HeLa cells. The experiment is classed as cell-based.
For experiment [13] the target is unchanged. Description: Binding affinity to full length human APE1 expressed in Escherichia coli BL21/DE3.

T1 sequence (P27695 whole entry): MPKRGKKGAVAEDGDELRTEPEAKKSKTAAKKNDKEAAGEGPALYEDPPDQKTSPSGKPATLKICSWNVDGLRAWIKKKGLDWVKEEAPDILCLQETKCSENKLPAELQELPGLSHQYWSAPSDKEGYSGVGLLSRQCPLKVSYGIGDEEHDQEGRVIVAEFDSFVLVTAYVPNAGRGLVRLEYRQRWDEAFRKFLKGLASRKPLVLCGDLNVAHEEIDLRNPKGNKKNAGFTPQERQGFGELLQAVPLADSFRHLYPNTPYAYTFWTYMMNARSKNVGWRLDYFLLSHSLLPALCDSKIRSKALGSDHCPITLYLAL

As to `O=c1oc(-c2ccccc2F)nc2cc(Cl)ccc12`, the IC50 in [1] came to 1600 nM.

Take `COc1cc2c(ccc3cc(OC)c(OC)c(O)c32)cc1O`: in experiment [2], the IC50 is 400 nM.

Regarding `CC1=C/C(=C(/c2ccc(O)c(C)c2)c2ccccc2C(=O)O)C=CC1=O`, half-maximal inhibition in [3] (IC50) required 1700 nM.

The compound `Cc1ccc(C)n1-c1ccc(OCC(=O)O)cc1` displayed an IC50 in [4] of 1700 nM.

In turn, `Cc1cc(C)c2c(N)c3cccc(C)c3nc2n1` came in with an IC50 in experiment [4] of 2100 nM.

Regarding `Nc1c(S(N)(=O)=O)cc(S(N)(=O)=O)cc1S(N)(=O)=O`, in experiment [3], the half-maximal inhibitory concentration (IC50) is 1400 nM.

`CCOC(=O)c1cc(-c2ccc(/C=C3/C(=O)N(c4ccc(C(=O)O)cc4)N=C3C)o2)ccc1Cl`: the IC50 in experiment [2] was found to be 6800 nM.

On to `O=C1NC(=O)N(Cc2ccco2)C(=O)/C1=C/C=C/c1ccco1`, for which the IC50 in [2] is 2800 nM.

Turning to `O=C(O)c1cc2cccc([N+](=O)[O-])c2[nH]1`, the IC50 in experiment [5] was 3060 nM.

In turn, `O=C(Nc1cccc(Cl)c1)c1noc2c1CCC2` had an IC50 in experiment [4] of 1600 nM.

Regarding `COc1cccc(CNC(=O)c2cccc(C(=O)O)c2OC)c1`, the IC50 in [6] was found to be 19000 nM.

As for `C=C1S/C(=N\c2ccccc2Cl)N(C(=O)c2sc3ccccc3c2Cl)C12CCCCC2`, the IC50 in [1] was 1400 nM.

Turning to `COc1ccc(CNC(=O)c2cccc(C(=O)O)c2OC)cc1OC`, the IC50 in experiment [6] worked out at 18000 nM.

Take `Cc1sc(Nc2cc(Cl)cc(Cl)c2)nc1-c1ccc(-c2ccccc2F)cc1`: the half-maximal inhibitory concentration (IC50) in [1] came out at 900 nM.

`c1cc2ccc3cc2cc1CNCCNCCNCc1ccc2ccc(cc2c1)CNCCNCCNC3`: the IC50 in experiment [7] is 57 nM.

In the case of `CCCCCCCCC/C(=C\C1=C(C)C(=O)C(OC)=C(OC)C1=O)C(=O)NOC`, in experiment [8], it took 8500 nM to reach half-maximal inhibition (IC50).

With `O=S(=O)(Oc1ccc(-c2ccc(OS(=O)(=O)c3ccc(Cl)c(Cl)c3)cc2)cc1)c1ccc(Cl)c(Cl)c1`, the 50% inhibitory concentration (IC50) in [1] was 1800 nM.

Regarding `CC(C)(C)c1ccc(S(=O)(=O)Oc2ccc(-c3ccc(Oc4c(Cl)cccc4[N+](=O)[O-])cc3)cc2)cc1`, in experiment [1], the 50% inhibitory concentration (IC50) stood at 1700 nM.

Consider `COc1c(C(=O)O)cccc1C(=O)NCc1ccc(Cl)c(Cl)c1`, for which the IC50 in experiment [6] is 18000 nM.

Turning to `O=C(OCC(=O)N1NC(c2ccc3ccccc3c2)=C[C@@H]1c1ccccc1)c1ccc([N+](=O)[O-])s1`, the IC50 in [9] was 3000 nM.

Take `O=C(O)CC[C@H]1N[C@@]2(C(=O)Nc3c(Cl)cccc32)[C@H]2C(=O)N(Cc3ccc4c(c3)OCO4)C(=O)[C@@H]12`: the IC50 in experiment [10] was determined as 1800 nM.

As for `c1cc2ccc3cc2cc1CNCCOCCNCc1ccc2ccc(cc2c1)CNCCOCCNC3`, the IC50 in experiment [7] is 55 nM.

Take `CC(C)(C)c1ccc(OC(=O)c2sc3ccccc3c2Cl)c(C(C)(C)C)c1`: the IC50 in experiment [1] worked out at 800 nM.

On to `O=C(c1cc2ccccc2o1)[C@@H](O)c1nc2ccccc2s1`, for which, in experiment [9], the IC50 was 2000 nM.

In the case of `Cc1sc(-c2ccc(Cl)cc2)nc1-c1ccc(-c2ccccc2F)cc1`, the IC50 in experiment [1] came to 1300 nM.

As to `COc1c(C(=O)O)cccc1C(=O)NCc1cccc(Cl)c1`, the IC50 in experiment [6] stood at 16000 nM.

In the case of `O=c1oc(-c2ccc(Cl)cc2Cl)nc2ccc([N+](=O)[O-])cc12`, in [1], the IC50 stood at 2000 nM.

Regarding `CCn1c2ccccc2c2cc(/C=N/Nc3cc(C)nc4cc5c(cc34)OCO5)ccc21`, in [11], it took 4200 nM to inhibit growth by half (GI50).

For `O=[N+]([O-])c1cccc(S(=O)(=O)[N-]c2nc3ccccc3nc2-[n+]2ccc(Cc3ccccc3)cc2)c1`, in experiment [10], the IC50 worked out at 6800 nM.

Regarding `Brc1cc(-c2cc(Br)c(Br)c(Br)c2)cc(Br)c1Br`, in [1], the IC50 was 200 nM.

Compound `O=C(CSc1ncn[nH]1)Nc1cccc2c1C(=O)c1ccccc1C2=O` displayed an IC50 in experiment [12] of 4000 nM.

Consider `Cc1coc2c1C(=O)C(=O)c1c-2ccc2c1CCCC2(C)C` [TANSHINONE IIA], for which the Kd in [13] was 0.88 nM.
